Drawing on article PMC3145970, “Specific CLK Inhibitors from a Novel Chemotype for Regulation of Alternative Splicing” (Chemistry & Biology, 2011), this text covers ΔTm for five compounds.

What all share (assay): Thermal stability shift assay
Type in all cases: binding

One assay has as its target T1, PRKX (Homo sapiens, UniProt P51817).
T1 sequence (P51817 1-358): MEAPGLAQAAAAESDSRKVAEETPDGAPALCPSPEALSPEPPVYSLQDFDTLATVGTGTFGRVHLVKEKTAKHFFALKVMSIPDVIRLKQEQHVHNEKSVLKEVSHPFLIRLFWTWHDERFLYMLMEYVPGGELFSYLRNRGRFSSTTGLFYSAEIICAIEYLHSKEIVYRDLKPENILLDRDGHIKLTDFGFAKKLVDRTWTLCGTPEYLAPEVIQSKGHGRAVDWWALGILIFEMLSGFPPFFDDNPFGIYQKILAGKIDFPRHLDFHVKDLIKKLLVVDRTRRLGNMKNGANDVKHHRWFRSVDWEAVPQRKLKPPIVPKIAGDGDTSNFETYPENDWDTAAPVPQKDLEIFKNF
To be noted: read-out: Tm shift PRKX. The method, then:
(§1) Thermal denaturation experiments were carried out in an Mx3005p real-time PCR machine (Agilent) using a protein concentration of 2 μM and an inhibitor concentration of 10 μM. Samples were buffered in 10 mM HEPES (pH 7.5), 500 mM NaCl and a 1:1000 dilution of SyproOrange (Invitrogen). The assay and data evaluation were carried out as described ([Bullock et al., 2005])

The target of a further assay is smMLCK (Homo sapiens, UniProt Q15746). The conditions noted are these: read-out: Tm shift smMLCK. The method, then: as §1
The next assay concerns the target CaMK1d (Homo sapiens, UniProt Q8IU85). To be noted: read-out: Tm shift CaMK1d. The method, then:
as §1

For another assay, the target named is T2, SgK085 (Homo sapiens, UniProt Q86YV6).
T2 sequence (Q86YV6 1-388): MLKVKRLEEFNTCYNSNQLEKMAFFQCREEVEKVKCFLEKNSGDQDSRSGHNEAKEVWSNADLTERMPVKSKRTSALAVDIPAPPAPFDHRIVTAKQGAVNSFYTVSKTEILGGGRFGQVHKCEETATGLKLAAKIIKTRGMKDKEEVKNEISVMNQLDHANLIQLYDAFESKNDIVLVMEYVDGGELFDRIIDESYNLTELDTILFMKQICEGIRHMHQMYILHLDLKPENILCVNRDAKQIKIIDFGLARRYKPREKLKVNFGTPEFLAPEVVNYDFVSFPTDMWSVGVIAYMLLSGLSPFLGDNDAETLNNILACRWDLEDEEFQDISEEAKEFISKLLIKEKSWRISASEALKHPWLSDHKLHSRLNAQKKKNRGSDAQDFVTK
To be noted: read-out: Tm shift SgK085. Here is the method: as §1

Another assay deals with CaMKK1 (Homo sapiens, UniProt Q8N5S9). To be noted: read-out: Tm shift CaMKK1. Here is the method: as §1
For another assay, the target named is T3, DRAK2 (Homo sapiens, UniProt O94768).
T3 construct: purchased in-house (SGC Oxford thermal shift panel)
T3 sequence (O94768 1-372): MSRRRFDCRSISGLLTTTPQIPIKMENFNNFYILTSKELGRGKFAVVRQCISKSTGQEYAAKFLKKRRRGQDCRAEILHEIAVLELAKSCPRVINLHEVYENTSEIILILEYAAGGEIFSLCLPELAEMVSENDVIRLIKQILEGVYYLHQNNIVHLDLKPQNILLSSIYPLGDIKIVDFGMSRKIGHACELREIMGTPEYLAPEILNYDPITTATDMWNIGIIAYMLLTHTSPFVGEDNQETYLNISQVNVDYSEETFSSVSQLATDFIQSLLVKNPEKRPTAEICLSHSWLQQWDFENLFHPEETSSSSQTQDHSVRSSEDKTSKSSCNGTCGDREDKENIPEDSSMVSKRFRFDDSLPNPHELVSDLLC
The conditions noted are these: read-out: Tm shift DRAK2. Here is the method: as §1

The next assay deals with T4, PKCz (Homo sapiens, UniProt Q05513).
T4 sequence (Q05513 1-592): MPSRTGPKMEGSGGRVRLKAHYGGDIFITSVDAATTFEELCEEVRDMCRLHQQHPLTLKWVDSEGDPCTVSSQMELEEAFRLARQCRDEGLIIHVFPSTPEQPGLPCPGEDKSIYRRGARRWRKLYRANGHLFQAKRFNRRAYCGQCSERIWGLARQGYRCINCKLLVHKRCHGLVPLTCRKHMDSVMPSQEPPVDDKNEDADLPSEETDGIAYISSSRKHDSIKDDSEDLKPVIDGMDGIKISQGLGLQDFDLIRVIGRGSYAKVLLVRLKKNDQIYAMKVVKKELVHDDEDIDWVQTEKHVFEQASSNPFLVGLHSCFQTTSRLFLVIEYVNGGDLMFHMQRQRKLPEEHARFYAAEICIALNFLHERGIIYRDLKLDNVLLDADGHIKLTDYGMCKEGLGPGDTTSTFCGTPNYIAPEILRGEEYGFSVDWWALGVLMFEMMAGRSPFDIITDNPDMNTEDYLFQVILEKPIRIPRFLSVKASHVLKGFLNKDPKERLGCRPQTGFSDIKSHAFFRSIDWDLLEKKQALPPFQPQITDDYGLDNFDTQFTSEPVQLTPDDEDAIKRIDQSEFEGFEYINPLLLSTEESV
To be noted: read-out: Tm shift PKCz. The method, then: as §1

The next assay addresses T5, BARK2 (Homo sapiens, UniProt P35626).
T5 sequence (P35626 1-688): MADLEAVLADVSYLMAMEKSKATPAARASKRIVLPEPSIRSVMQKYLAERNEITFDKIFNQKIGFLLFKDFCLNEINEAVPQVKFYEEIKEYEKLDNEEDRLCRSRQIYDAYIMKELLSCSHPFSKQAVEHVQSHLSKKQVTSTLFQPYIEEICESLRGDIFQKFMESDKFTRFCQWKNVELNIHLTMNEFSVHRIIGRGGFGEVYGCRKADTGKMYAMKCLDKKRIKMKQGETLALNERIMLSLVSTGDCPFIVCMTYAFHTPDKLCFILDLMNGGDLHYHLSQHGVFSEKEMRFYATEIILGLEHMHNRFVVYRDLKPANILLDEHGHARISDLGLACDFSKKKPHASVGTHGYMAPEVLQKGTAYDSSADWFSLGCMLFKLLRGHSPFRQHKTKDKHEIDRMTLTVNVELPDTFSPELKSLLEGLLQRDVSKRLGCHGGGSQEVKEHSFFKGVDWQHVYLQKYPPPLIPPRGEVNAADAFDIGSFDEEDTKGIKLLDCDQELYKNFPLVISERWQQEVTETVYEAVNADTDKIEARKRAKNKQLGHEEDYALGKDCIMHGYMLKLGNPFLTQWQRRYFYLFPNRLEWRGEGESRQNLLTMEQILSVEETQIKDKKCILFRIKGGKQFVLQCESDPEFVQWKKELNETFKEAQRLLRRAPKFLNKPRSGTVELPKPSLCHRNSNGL
The conditions noted are these: read-out: Tm shift BARK2. Here is the method:
as §1

Like-named read-outs stand apart in the source and are kept apart here.

Sequence of CaMK1d (Q8IU85 whole entry): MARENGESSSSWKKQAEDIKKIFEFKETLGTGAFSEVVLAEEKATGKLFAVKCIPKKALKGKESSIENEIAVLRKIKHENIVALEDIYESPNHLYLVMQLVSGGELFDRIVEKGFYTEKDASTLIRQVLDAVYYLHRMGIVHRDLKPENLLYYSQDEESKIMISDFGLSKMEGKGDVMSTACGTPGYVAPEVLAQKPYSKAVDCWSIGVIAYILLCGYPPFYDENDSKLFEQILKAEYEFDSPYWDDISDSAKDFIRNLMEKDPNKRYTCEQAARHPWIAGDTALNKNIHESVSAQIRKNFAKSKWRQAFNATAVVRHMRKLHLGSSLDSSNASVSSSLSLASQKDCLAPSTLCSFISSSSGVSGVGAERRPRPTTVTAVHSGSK
Sequence of smMLCK (Q15746 whole entry): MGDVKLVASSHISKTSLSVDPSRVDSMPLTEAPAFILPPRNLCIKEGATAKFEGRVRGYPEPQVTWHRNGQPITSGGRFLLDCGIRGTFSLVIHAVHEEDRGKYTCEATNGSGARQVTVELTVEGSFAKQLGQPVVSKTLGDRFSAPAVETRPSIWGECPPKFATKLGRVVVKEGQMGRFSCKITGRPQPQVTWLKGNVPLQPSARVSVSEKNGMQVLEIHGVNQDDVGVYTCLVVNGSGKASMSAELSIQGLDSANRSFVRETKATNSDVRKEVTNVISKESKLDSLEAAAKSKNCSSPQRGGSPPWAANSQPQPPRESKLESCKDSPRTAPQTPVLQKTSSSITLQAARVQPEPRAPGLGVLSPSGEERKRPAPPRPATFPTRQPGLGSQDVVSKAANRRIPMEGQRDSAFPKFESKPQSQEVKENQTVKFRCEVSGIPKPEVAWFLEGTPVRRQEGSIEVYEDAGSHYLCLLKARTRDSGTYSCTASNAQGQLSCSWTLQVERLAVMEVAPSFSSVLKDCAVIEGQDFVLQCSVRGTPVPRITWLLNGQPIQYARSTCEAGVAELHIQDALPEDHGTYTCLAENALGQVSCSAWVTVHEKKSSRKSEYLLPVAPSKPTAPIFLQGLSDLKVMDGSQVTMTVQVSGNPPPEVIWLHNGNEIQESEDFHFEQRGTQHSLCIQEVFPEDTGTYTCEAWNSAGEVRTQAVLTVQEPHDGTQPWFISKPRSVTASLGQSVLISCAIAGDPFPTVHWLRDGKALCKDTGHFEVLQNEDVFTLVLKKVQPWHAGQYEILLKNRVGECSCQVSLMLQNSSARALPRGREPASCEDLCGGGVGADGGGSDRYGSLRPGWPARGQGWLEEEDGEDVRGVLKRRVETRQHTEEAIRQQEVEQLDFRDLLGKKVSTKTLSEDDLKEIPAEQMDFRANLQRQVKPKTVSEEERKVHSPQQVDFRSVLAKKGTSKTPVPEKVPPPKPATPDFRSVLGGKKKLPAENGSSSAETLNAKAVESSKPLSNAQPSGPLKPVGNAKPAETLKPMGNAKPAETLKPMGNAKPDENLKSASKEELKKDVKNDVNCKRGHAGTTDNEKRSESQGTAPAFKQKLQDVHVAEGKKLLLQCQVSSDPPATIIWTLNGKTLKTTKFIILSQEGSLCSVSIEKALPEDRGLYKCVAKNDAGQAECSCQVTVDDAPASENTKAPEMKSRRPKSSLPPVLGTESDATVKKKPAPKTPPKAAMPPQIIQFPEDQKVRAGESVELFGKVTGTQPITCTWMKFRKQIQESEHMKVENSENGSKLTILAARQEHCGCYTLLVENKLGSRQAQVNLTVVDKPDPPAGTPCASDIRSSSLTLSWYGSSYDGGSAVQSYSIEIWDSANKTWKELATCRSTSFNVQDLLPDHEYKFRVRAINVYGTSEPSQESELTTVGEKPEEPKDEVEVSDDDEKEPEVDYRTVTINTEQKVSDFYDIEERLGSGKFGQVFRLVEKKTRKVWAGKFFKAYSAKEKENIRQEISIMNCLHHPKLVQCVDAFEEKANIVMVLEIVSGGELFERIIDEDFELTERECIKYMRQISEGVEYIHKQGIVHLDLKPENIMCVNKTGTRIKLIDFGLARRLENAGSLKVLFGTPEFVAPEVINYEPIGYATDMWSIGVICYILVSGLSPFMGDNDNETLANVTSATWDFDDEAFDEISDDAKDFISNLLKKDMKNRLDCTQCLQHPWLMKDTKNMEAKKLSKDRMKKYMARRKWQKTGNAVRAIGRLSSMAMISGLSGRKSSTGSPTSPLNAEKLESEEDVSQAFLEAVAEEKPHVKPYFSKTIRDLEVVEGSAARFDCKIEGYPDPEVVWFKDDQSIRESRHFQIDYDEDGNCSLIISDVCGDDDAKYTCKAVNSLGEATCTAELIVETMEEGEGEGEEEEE
Sequence of CaMKK1 (Q8N5S9 whole entry): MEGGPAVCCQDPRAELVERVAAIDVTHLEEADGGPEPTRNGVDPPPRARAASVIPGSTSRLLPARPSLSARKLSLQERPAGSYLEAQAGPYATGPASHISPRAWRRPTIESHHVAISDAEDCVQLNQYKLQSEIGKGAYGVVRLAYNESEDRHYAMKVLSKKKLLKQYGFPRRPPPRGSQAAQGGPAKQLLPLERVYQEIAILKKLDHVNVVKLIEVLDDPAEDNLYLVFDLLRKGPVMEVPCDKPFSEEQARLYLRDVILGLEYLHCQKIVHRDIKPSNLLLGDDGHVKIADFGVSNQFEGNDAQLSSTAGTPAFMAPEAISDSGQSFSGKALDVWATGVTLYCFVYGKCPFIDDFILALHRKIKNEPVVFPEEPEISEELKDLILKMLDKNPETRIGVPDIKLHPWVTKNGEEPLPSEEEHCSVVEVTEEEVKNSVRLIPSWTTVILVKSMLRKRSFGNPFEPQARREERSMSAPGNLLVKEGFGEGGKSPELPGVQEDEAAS

Take `Cn1c2c(Cl)c(Cl)ccc2c2c(C#N)c[nH]c(=O)c21` [compound 3, 7,8-Dichloro-9-Methyl-1-Oxo-2,9-Dihydro-1H-Pyrido[3,4-b]Indole-4-Carbonitrile]: the ΔTm at 10 µM on PRKX (inhibitor 10 μM) is 0.5 °C; on smMLCK (inhibitor 10 μM) it was 0.5 °C; at CaMK1d (inhibitor 10 μM) it was -0.3 °C; at SgK085 (inhibitor 10 μM) it was 2.9 °C; on CaMKK1 (inhibitor 10 μM), 0.4 °C; on DRAK2 (inhibitor 10 μM) it was 0.9 °C. The ΔTm at 10 µM on PKCz (inhibitor 10 μM) turned out to be 0.5 °C; at BARK2 (inhibitor 10 μM), 0.3 °C.

As to `CCOC(=O)c1c(C(C#N)=CN)c2ccc(Cl)c(Cl)c2n1C` (mixture of isomers) [KH-CB20, (E/Z)-Ethyl 3-(2-Amino-1-Cyanovinyl)-6,7-Dichloro-1-Methyl-1H-Indole-2-Carboxylate], the ΔTm at 10 µM at PRKX is 0.4 °C; at smMLCK it was 0.6 °C; on CaMK1d it was -0.6 °C; at SgK085, 4.5 °C; on CaMKK1, 0.6 °C; on DRAK2 it was 1.5 °C. Besides, the ΔTm at 10 µM at PKCz is 0.1 °C; on BARK2 it was -0.1 °C.

On to `NC1=NC(=O)/C(=C2\CCNC(=O)c3[nH]c(Br)cc32)N1` [Hymenialdisine, hymenialdisine, reference compound], for which the ΔTm at 10 µM on PRKX (inhibitor 10 μM) worked out at 0.3 °C; on smMLCK (inhibitor 10 μM), 1.9 °C; at CaMK1d (inhibitor 10 μM) it was 0 °C; at SgK085 (inhibitor 10 μM), 2.7 °C; on CaMKK1 (inhibitor 10 μM), 0.2 °C; at DRAK2 (inhibitor 10 μM) it was 13 °C. Also, the ΔTm at 10 µM at PKCz (inhibitor 10 μM) was -0.2 °C; on BARK2 (inhibitor 10 μM), -0.3 °C.

`CCOC(=O)c1c(/C(C#N)=C\N)c2ccc(Cl)c(Cl)c2n1C` [KH-CB19, (E)-Ethyl 3-(2-Amino-1-Cyanovinyl)-6,7-Dichloro-1-Methyl-1H-Indole-2-Carboxylate]: the ΔTm at 10 µM was 0.5 °C at PRKX; 0.5 °C on smMLCK; 0.1 °C at CaMK1d; 4.1 °C on SgK085; -0.1 °C on CaMKK1; 1.7 °C on DRAK2. Besides, the ΔTm at 10 µM on PKCz was -0.2 °C; on BARK2, -0.4 °C.

As for `CCOC(=O)c1c(C(C#N)=CN(C)C)c2ccc(Cl)c(Cl)c2n1C` (mixture of isomers) [compound 2, (E/Z)-Ethyl 6,7-Dichloro-3-[1-Cyano-2-(Dimethylamino)Vinyl]-1-Methyl-1H-Indole-2-Carboxylate], the ΔTm at 10 µM was 0.3 °C on PRKX (inhibitor 10 μM); 1.1 °C at smMLCK (inhibitor 10 μM); -0.4 °C on CaMK1d (inhibitor 10 μM); 0.4 °C at SgK085 (inhibitor 10 μM); 0.3 °C at CaMKK1 (inhibitor 10 μM); 0 °C on DRAK2 (inhibitor 10 μM). For the same compound, the ΔTm at 10 µM came out at 0.4 °C at PKCz (inhibitor 10 μM) and 0.2 °C on BARK2 (inhibitor 10 μM).
